Test results: PMC11432795, “Mutagenesis of the Peptide Inhibitor of ASIC3 Channel Introduces Binding to Thumb Domain of ASIC1a but Reduces Analgesic Activity” (Marine Drugs, 2024)
Positions of bridges follow the written chain, without caps; N, C: chain ends. Residues, ends and D or L forms follow the SMILES beside them.

How the values were obtained:
[1] = test system: rat ASIC1b channel; experiment: Two-electrode voltage clamp, rat ASIC1b in X. laevis oocytes; type: cell-based; conditions: 30 s preapplication, activated at pH 5.5
Experimental: A small portion of the ovary was isolated from frogs under anesthesia induced by a 0.17% solution of procaine methanesulphonate (MS222) (Sigma), followed by treatment with collagenase (1 mg/mL) at room temperature for 2 h. Oocytes at stages IV and V, devoid of follicular membranes, were transferred to ND-96 medium (containing 96 mM NaCl, 5 mM HEPES, 2 mM KCl, 1.8 mM CaCl2, 1 mM MgCl2, pH 7.4). mRNA synthesis was performed from pcDNA3.1 vectors (Invitrogen, Carlsbad, CA, USA) containing the rat ASIC3 gene, as well as pCI vectors containing genes for rat ASIC1a, its mutant analogues, and ASIC1b. mRNA (2.5–10 ng) was then injected into the oocytes. For the ASIC1a/3 heteromeric channels, the mRNA encoding the ASIC1a and ASIC3 subunits were injected in a 1:5 ratio, respectively. Subsequently, the oocytes were incubated for 2–3 days at a temperature of 17–19 °C in ND96 medium supplemented with gentamicin and streptomycin (20 µg/mL each).
Whole-cell electrophysiological recordings of ASIC channels were conducted using a two-electrode voltage-clamp setup. Microelectrodes were filled with 3 M KCl. Recordings from oocytes were carried out at a holding potential of −50 mV, with data filtered at 10 Hz and sampled at a rate of 100 Hz using an L780M ADC (LCard, Moscow, Russia). […]

[2] = test system: rat ASIC1a E357A mutant channel; experiment: Two-electrode voltage clamp, E357A mutant ASIC1a in X. laevis oocytes; type: cell-based; conditions: 10 µM; pH 5.5 stimulus, conditioning pH 7.4, peptide 30 s; mean ± SEM, n = 5
Experimental: Figure 5 The pivotal role of residue D355 in the ASIC1a channel for the action of the A23K peptide ligand. (A,B) pH dependence of steady-state desensitization (A) and activation (B) in mutant channels (D355A and E357A) compared to the wild-type channel (wt). Each data point represents results from 5 cells. (C–E) Representative current traces illustrating the effects of A23K at a concentration of 10 µM on wt (C), D355A (D), and E357A (E) channels. Currents were evoked by a pH 5.5 stimulus following a conditioning pH of 7.4, with the peptide applied for 30 s preceding the pH stimulus. (F) Bar graph quantifying the effects depicted in (C,D) as a percentage of the corresponding control currents (n = 5). A value of 1.0, represented by a dotted line, corresponds to control measurements at pH 5.5 for each form of ASIC1a. The data are expressed as mean ± SEM; *** p < 0.001, **** p < 0.0001, ns non-significant vs. control, unpaired t-test.
To introduce D355A and E357A substitutions, we designed two pairs of primers. For D355A substitution, the forward primer sequence was 5′–[…]–3′, and the reverse primer (R2) for D355A was 5′–CTAGGAAGTCCAGGGCAG–3′. For E357A substitution, the forward primer sequence was 5′–[…]–3′, and the reverse primer for E357A was the same as for D355A (designated as “R2”). […]

[3] = test system: ASIC3 channels; conditions: ref [18],[19],[20]; cited from earlier work
Excerpt: The 29-amino acid peptide Ugr9a-1, isolated from the venom of the northern sea anemone Urticina grebelnyi, represents a structural class of toxins termed “boundless β-hairpin”.

## CC[C@H](C)[C@H](N)C(=O)N[C@@H](CO)C(=O)N[C@H](C(=O)N[C@@H](CC(=O)O)C(=O)N1CCC[C@H]1C(=O)N1CCC[C@H]1C(=O)N[C@H]1CSSC[C@@H]2NC(=O)[C@H](CC(N)=O)NC(=O)CNC(=O)[C@H](CO)NC(=O)CNC(=O)[C@H](CC(=O)O)NC(=O)[C@H](CCCNC(=N)N)NC(=O)[C@H](Cc3c[nH]cn3)NC(=O)[C@H](Cc3ccc(O)cc3)NC(=O)[C@H](CSSC[C@@H](C(=O)NCC(=O)N[C@@H](C)C(=O)N[C@H](C(=O)O)C(C)C)NC(=O)CNC(=O)[C@H](Cc3ccc(O)cc3)NC(=O)[C@H](CCCCN)NC(=O)[C@H](CC(=O)O)NC(=O)[C@H](Cc3ccc(O)cc3)NC(=O)[C@H](C(C)C)NC2=O)NC(=O)[C@H](Cc2ccccc2)NC(=O)[C@H](CCCNC(=N)N)NC1=O)[C@@H](C)CC [A23K] (H-ISIDPPCRFCYHRDGSGNCVYDKYGCGAV-OH; disulfide 7-19, 10-26)
[1]
  effect on rat ASIC1b channel at 50 µM: Lack of effect
[2]
  inhibitory effect on E357A mutant channel: 47.1 ± 7.7%

## CC[C@H](C)[C@H](N)C(=O)N[C@@H](CO)C(=O)N[C@H](C(=O)N[C@@H](CC(=O)O)C(=O)N1CCC[C@H]1C(=O)N1CCC[C@H]1C(=O)N[C@H]1CSSC[C@@H]2NC(=O)[C@H](CC(N)=O)NC(=O)CNC(=O)[C@H](CO)NC(=O)CNC(=O)[C@H](CC(=O)O)NC(=O)[C@H](CCCNC(=N)N)NC(=O)[C@H](Cc3c[nH]cn3)NC(=O)[C@H](Cc3ccc(O)cc3)NC(=O)[C@H](CSSC[C@@H](C(=O)NCC(=O)N[C@@H](C)C(=O)N[C@H](C(=O)O)C(C)C)NC(=O)CNC(=O)[C@H](Cc3ccc(O)cc3)NC(=O)[C@H](C)NC(=O)[C@H](CC(=O)O)NC(=O)[C@H](Cc3ccc(O)cc3)NC(=O)[C@H](C(C)C)NC2=O)NC(=O)[C@H](Cc2ccccc2)NC(=O)[C@H](CCCNC(=N)N)NC1=O)[C@@H](C)CC [Ugr9-1] (H-ISIDPPCRFCYHRDGSGNCVYDAYGCGAV-OH; disulfide 7-19, 10-26)
[3]
  modulation of ASIC3 channels: selectively modulates ASIC3 channels
